Measurements published in BindingDB's records for doi:10.1016/S0960-894X(00)80254-1 (1991).

Experiment: Inhibition of angiotensin I phosphorylation catalyzed by the protein-tyrosine kinase p56 lck partially purified from bovine thymus.

IC50 [µM]	Structure (SMILES)
2120	O=C(Nc1ccncc1)c1cccnc1
829	COc1ccc(/C=C/c2ccccn2)cc1OC [2-[(E)-2-(3,4-Dimethoxy-phenyl)-vinyl]-pyridine]
1230	C(=C\c1ccccn1)/c1ccccn1 [2-[(E)-2-pyridin-2-ylvinyl]pyridine]
999	COc1cc(C(=O)Nc2cccnc2)cc(OC)c1OC [3,4,5-Trimethoxy-N-pyridin-3-yl-benzamide]
> 2780	COc1cc(C(=O)Nc2ccncc2)cc(OC)c1OC [3,4,5-Trimethoxy-N-pyridin-4-yl-benzamide]
205	COc1cc(OC)cc(C(=O)Nc2ccccn2)c1 [3,5-Dimethoxy-N-pyridin-2-yl-benzamide]
3100	COc1cc(OC)cc(C(=O)Nc2ccncc2)c1 [3,5-Dimethoxy-N-pyridin-4-yl-benzamide]
178	COc1ccc(/C=C/c2cccnc2)cc1OC [3-(3,4-dimethoxystyryl)pyridine]
> 2930	COc1cc(CCc2cccnc2)cc(OC)c1OC [3-[2-(3,4,5-Trimethoxy-phenyl)-ethyl]-pyridine]
1320	COc1ccc(CCc2cccnc2)cc1OC [3-[2-(3,4-Dimethoxy-phenyl)-ethyl]-pyridine]
> 3790	COc1ccc(/C=C/c2cccnc2)cc1 [3-[(E)-2-(4-Methoxy-phenyl)-vinyl]-pyridine]
2910	c1cc(CCc2ccncc2)ccn1 [4-(2-pyridin-4-ylethyl)pyridine]
> 3280	COc1cc(CNc2ccccn2)cc(OC)c1 [(3,5-Dimethoxy-benzyl)-pyridin-2-yl-amine]
2320	O=C(Nc1ccncc1)c1ccncc1 [N-Pyridin-4-yl-isonicotinamide]
> 2920	COc1cc(CNc2ccccn2)cc(OC)c1OC [Pyridin-2-yl-(3,4,5-trimethoxy-benzyl)-amine]
